Source: article PMC6855259, “Acylation-coupled lipophilic induction of polarisation (Acyl-cLIP): a universal assay for lipid transferase and hydrolase enzymes” (Chemical Science, 2019)
pEC50, pKd: −log10 of the molar value. Counter-ions that a name gives are not always drawn.

Key:
HHAT = target: T1, HHAT (Homo sapiens, UniProt Q5VTY9); assay: Pilot HTS Acyl-cLIP screen of FDA-approved drugs, purified HHAT, stopped-assay conditions; assay type: biochemical; settings: compounds screened at 25 μM
T1 construct: FLAG (C); His (C); made in house; host or cells: HEK293a cells stably overexpressing HHAT-FLAG-His
T1 sequence (Q5VTY9 whole entry): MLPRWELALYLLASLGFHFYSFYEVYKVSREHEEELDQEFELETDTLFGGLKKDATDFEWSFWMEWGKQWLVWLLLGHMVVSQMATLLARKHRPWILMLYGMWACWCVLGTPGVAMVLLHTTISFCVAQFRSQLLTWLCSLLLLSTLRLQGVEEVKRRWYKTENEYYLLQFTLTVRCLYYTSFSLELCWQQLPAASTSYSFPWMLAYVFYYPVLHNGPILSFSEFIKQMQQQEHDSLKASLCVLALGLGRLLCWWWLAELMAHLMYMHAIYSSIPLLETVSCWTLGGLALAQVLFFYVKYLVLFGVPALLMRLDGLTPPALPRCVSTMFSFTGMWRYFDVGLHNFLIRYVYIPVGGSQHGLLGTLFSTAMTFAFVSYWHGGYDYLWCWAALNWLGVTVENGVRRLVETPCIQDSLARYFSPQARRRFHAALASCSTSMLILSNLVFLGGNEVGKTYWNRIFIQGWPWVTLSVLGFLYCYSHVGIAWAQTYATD

[1] = tested on: SHH acylation in HEK-293 SHH+ cells; assay: In-cell YnC15 tagging assay of SHH acylation; assay type: cell-based, human; settings: inhibitors 20 µM, YnC15, AzTB ligation; for inhibition of SHH acylation (YnC15 tagging) by in-gel fluorescence: IGF; for inhibition of SHH acylation assessed by increased molecular weight in anti-SHH blotting: α-SHH western blot
Method: In-Cell YnC15 Tagging Assay
HEK293a SHH+ cells (500,000 cells/well) were plated in a 6-well plate in DMEM/FBS (3 mL/well) and cultured for 24 h. Cells were treated with inhibitors in DMSO (20 µM), two RUSKI-201 (20 µM) blind-positive controls and two DMSO (7.5 µL) blind-negative controls.
After 1 h, YnC15 (3 µL, 20 mM in DMSO) was added and cells cultured for a further 6 h before washing with PBS. Cells were lysed in PBS with Triton X-100 (1%), SDS (0.1% (w/v)) and Complete EDTA-free protease inhibitor cocktail (Roche Diagnostics). Cells were removed from plates by scraping, and lysates centrifuged (13,000 g, 10 min, 4 °C). The protein concentration of the supernatant was estimated using the DC Protein Assay (Bio-Rad) and adjusted to 1 mg/mL with lysis buffer. AzTB (1 µL, 10 mM in DMSO), CuSO4 (2 µL, 50 mM in H2O), TCEP (2 µL, 50 mM in H2O) and TBTA (1 µL, 10 mM in DMSO) were combined, and this mixture (6 µL) added to the lysate (100 µL). Samples were shaken at RT for 1 h, then proteins precipitated by addition of methanol (200 µL), chloroform (50 µL) and water (100 µL) followed by centrifugation (13,000 g, 5 min, 4 °C). The upper aqueous layer was removed without disturbing the protein layer at the interphase, methanol (0.5 mL) was added, and the precipitated proteins isolated by centrifugation (13,000 g, 10 min, 4 °C). Protein pellets were […]
(§1) washed twice with methanol, briefly air-dried and re-dissolved in PBS containing SDS (0.2% (w/v)) and DTT (0.1 mM) using sonication to a final concentration of 1 mg/mL.
(§2) 10 µg of protein were separated on a 15% SDS-polyacrylamide gel. Fluorescence was recorded using a Typhoon imager (GE Healthcare; excitation laser: 532 nm, emission filter:
(§3) Proteins were transferred to a nitrocellulose membrane by wet transfer (100 V, 1 h), and membranes blocked with BSA (5% (w/v)) in TBS-T (50 mM TRIS, 150 mM NaCl, 0.1% Tween-20, pH 7.5) for 1 h at RT, followed by overnight incubation at 4°C with rabbit α-SHH (Santa Cruz Biotechnology; sc-9024; 1:200) in TBS-T with BSA (0.5% (w/v)) or mouse α-Tubulin (Santa Cruz Biotechnology; sc-8035; 1:200) in TBS-T with BSA (0.5% (w/v)). Membranes were washed with TBS-T (4 × 5 min) and incubated at RT for 1 h with HRP-conjugated Goat-α-mouse IgG (Advansta; 1:10,000) in TBS-T with BSA (0.5% (w/v)) or Goat-α-rabbit IgG (Advansta; 1:10,000) in TBS-T with BSA (0.5% (w/v)). Membranes were washed with TBS-T (4 × 5 min) and developed with Luminata Crescendo Western HRP substrate (Millipore) on a Fujifilm LAS-3000 imager. YnC15-labelled SHH band intensities were quantified using ImageJ 1.50i (National Institute of Health, USA).
HEK293a SHH+ cells (5,000 cells/well) were plated in a 96-well plate in DMEM/FBS […]
(50 µL/well) and cultured for 24 h. […]

SHH-Light2 cells = assay: Constitutive Renilla luciferase control for cellular viability in SHH-Light2 assay; assay type: cell-based
Method: (§4) SHH-Light2 Signalling Assay
(§5) HEK293a SHH+ cells (120,000 cells/well) were plated in a 12-well cell culture treated plate (Nunc) in DMEM/FBS (1 mL/well) and cultured for 24 h. Cells were washed with PBS, followed by the addition of DMEM/FBS (1 mL) containing DMSO (0.2%) or varying inhibitor concentrations in DMSO (0.041-30 µM). SHH-Light2 cells (20,000 cells/well) were plated in a 96-well plate in DMEM/FCS (50 µL/well). After 24 h, conditioned medium (300 µL) was removed from each well of the HEK293a SHH+ cells, centrifuged (1,000 g, 10 min), and added to three wells of SHH-Light2 cells (100 µL/well, 150 µL final volume). SHH-Light2 cells were cultured for a further 48 h, and washed with PBS prior to analysis. Firefly and Renilla luciferase activity was recorded using the Dual-Luciferase reporter system (Promega Corporation, USA).
(§6) Passive lysis buffer (20 µL) was added to each well and cells incubated for 30 min at RT. The lysate (5 µL) was transferred to a white opaque 96-well plate (Corning, 3362). Luciferase Assay Reagent II (20 µL/well) was added and the luminescence immediately recorded using a SpectraMax i3x spectrophotometer (Molecular Devices LLC). Stop&Glo (1x) substrate in Stop&Glo buffer (20 µL/well) was added and the luminescence immediately recorded. […]

HEK-293 SHH+ cells = assay: MTS viability assay; assay type: cell-based, human; settings: 72 h, inhibitors 0.14-100 µM
Method: as §1, §2
as §3, with “Membranes were washed with TBS-T (4 × 5 min) and developed with Luminata Crescendo Western HRP substrate (Millipore) on a Fujifilm LAS-3000 imager.” left out
HEK293a SHH+ cells (5,000 cells/well) were plated in a 96-well plate in DMEM/FBS (50 µL/well) and cultured for 24 h. […] The absorption at 490 nm was recorded using an EnVision Xcite 2104 and responses normalised to vehicle control and background corrected to Puromycin-treated samples.

[2] = tested on: HH signalling in SHH-Light2 cells; assay: SHH-Light2 signalling assay (Firefly luciferase); assay type: cell-based; settings: inhibitors 0.041-30 µM
Method: as §4, §5, §6

[3] = cited from earlier work
[4] = Detergent/BSA titration for polarised emission of Pal-SHH-FAM (fluorescence anisotropy); settings: titration with Pal-SHH-FAM; read-out: detergent concentration required for half-maximal polarised signal (EC50)
Method: Fluorescence measurements were recorded on an EnVision Xcite 2104 (PerkinElmer).
FAM-labelled peptides were measured using a FITC FP D505fp mirror module, FITC FP 480 nm excitation filter (30 nm bandwidth), FITC FP P-pol 535 nm first emission filter (40 nm bandwidth), and FITC FP S-pol 535 nm second emission filter (40 nm bandwidth). Continuous reaction monitoring was conducted using measurement height = 9.52 mm, 8 flashes/well, PMT gain = 319, and G-factor = 1.09.
TAMRA-labelled peptides were measured using a BODIPY TMR FP D555fp mirror module, BODIPY TMR FP 531 nm excitation filter (25 nm bandwidth), BODIPY TMR FP P-pol 579 nm first emission filter (25 nm bandwidth), and BODIPY TMR FP S-pol 579 nm second emission filter (25 nm bandwidth). Continuous reaction monitoring was conducted using measurement height = 6.5 mm, 200 flashes/well, PMT gain = 255, and G-factor = 1.6.
Detergents (2 mM) or BSA (0.15 mM) were tested for generation of polarised fluorescence from Pal-SHH-FAM or SHH-FAM (0.1 µM) in 100 mM MES, 20 mM NaCl. Detergent and BSA titrations were performed using 2-fold serial dilutions.

BSA = target: BSA; set-up: method as in PMID 11964183; settings: read-out: Kd of BSA for palmitic acid; cited from earlier work

CC(C)C[C@H]1C(=O)N2CCC[C@H]2[C@]2(O)O[C@](NC(=O)[C@@H]3C=C4c5cccc6[nH]c(Br)c(c56)C[C@H]4N(C)C3)(C(C)C)C(=O)N12 [Bromocriptine Mesylate]
inhibition at 25 µM (HHAT): > 80% | inhibition of SHH acylation (YnC15 tagging) by in-gel fluorescence ([1]; listed as Bromocriptine): inhibition | inhibition of SHH acylation (YnC15 tagging) by in-gel fluorescence ([1]; listed as bromocriptine): showed inhibition of SHH acylation | inhibition of SHH acylation assessed by increased molecular weight in anti-SHH blotting [1]: did not show inhibition of SHH acylation | cytotoxicity in SHH-Light2 signalling assay (SHH-Light2 cells): general cytotoxicity

CN(C)CCCN1c2ccccc2CCc2ccc(Cl)cc21 [Clomipramine·HCl]
viability in MTS assay (HEK-293 SHH+ cells; listed as Clomipramine): cytotoxicity | viability in MTS assay (HEK-293 SHH+ cells; listed as clomipramine): decreased viability at high concentrations | concentration at which HH signalling is inhibited ([2]; listed as Clomipramine): 30 µM | concentration at which HH signalling is inhibited ([2]; listed as clomipramine): > 30 µM | inhibition of SHH acylation (YnC15 tagging) by in-gel fluorescence ([1]; listed as Clomipramine): inhibition | inhibition of SHH acylation (YnC15 tagging) by in-gel fluorescence ([1]; listed as clomipramine): showed inhibition of SHH acylation | inhibition of SHH acylation assessed by increased molecular weight in anti-SHH blotting [1]: did not show inhibition of SHH acylation

CCCCCCCCCCCCO[C@@H]1O[C@H](CO)[C@@H](O[C@H]2O[C@H](CO)[C@@H](O)[C@H](O)[C@H]2O)[C@H](O)[C@H]1O [DDM, n-dodecyl β-D-maltoside]
critical micelle concentration (CMC) [3]: 170 µM | pEC50 [4]: 3.82

CCCCCCCCCCCCCCCC(=O)O [palmitic acid]
pKd (BSA): 6.98

Triton™ X-100 [TX-100]
critical micelle concentration (CMC) [3]: 200 µM | pEC50 [4]: 3.74
